Measured values published in US11236102B2, “Oxabicycloheptane prodrugs” (Lixte Biotechnology, Inc., priority 2015, dated 2022).
Read-outs that look alike come from different tables or passages of the source.

Legend:
in vivo [1] = conditions: rat, iv, 1.4 mg/kg
Description: 113 was dissolved in 4% NaHCO3 in saline for IV administration. The detailed procedure of dosing solution preparation was presented in Appendix I.
15 animals were placed on the study. The animals in IV arm were free access to food and water. For PO dose group, the animals were fasted overnight prior to dosing and the food was resumed 4 hours postdose.
The IV injection was conducted via foot dorsal vein. PO via oral gavage.
Blood collection: The animal is restrained manually. Approximately 200 μL of blood/time point is collected into sodium heparin tube via cardiac puncture for terminal bleeding (anesthetized under carbon dioxide). Blood sample will be put on ice and centrifuged to obtain plasma sample (2000 g, 5 min under 4° C.) within 10 minutes.
Liver collection: The animal will be euthanized with carbon dioxide inhalation. Open abdominal cavity with scissor to expose internal organs. Hold the carcass in an upright position and allow the organs to fall forward. Cut the connective tissues and remove the organs. Then the organs are rinsed with cold saline, dried on filtrate paper, placed into a screw-top tube and weighed, snap frozen by placing into dry-ice immediately.
Brain collection: Make a mid-line incision in the animals scalp and retract the skin. Using small bone cutters and rongeurs, remove the skull overlying the brain. Remove the brain using a spatula and rinse with cold saline, dried on filtrate paper, placed into a screw-top tube and weighed, snap frozen by placing into dry-ice immediately. […] Plasma, brain and liver samples were stored at approximately −80° C. until analysis. The backup samples will be discarded after three weeks after in-life completion unless requested. The unused dosing solutions will be discarded within three weeks after completion of the study.
Pharmacokinetic Analysis Software: The PK parameters were determined by non-compartmental model of non-compartmental analysis tool, Pharsight Phoenix WinNonlin® 6.2 software. […] Concentration data within 80%-120% of LLOQ was considered within normal instrumental variation and presented in the results. Terminal t1/2 calculation: Time points were automatic selected by “best fit” model for terminal half life estimation as the first option. Manual selection was applied when “best fit” could not well define the terminal phase. Results

U251 human GBM cells = conditions: compound 100 ip plus radiation
Description: Compound 100 is a serine-threonine phosphatase inhibitor that potentiates the activity of standard chemotherapeutic drugs and radiation. The mechanism of potentiation is impairment of multiple steps in a DNA-damage repair process and inhibition of exit from mitosis. […] Mice bearing subcutaneous (sc) xenografts of U251 human GBM cells were treated with compound 100 intraperitoneally together with radiation, each given daily for 5 days×3 courses.

[2] = system: PP2A in circulating white blood cells; test: Inhibition of PP2A in circulating white blood cells after slow iv 100; format: in vivo; conditions: rat
[3] = female dogs, day 4, cited from earlier work
[4] = Radiation dose enhancement by compound 100; conditions: compound 100 treatment
[5] = rat, in vivo
[6] = female rats, day 4, cited from earlier work
[7] = system: broad spectrum of human cancer cell lines; test: Activity of compound 100 against human cancer cell lines; format: cell-based
[8] = Stability in the presence of microsomes; format: in vitro ADME; conditions: mouse, rat, dog, monkey, and human microsomes; relative to verapamil
[9] = Pharmacokinetic study of 151 (iv, oral) in SD rats: 151 and 100 in plasma; format: in vivo; conditions: male, rat, in vivo, iv, 1 mg/kg, 5 h
Description: The absolute bioavailability was evaluated.
To each sample, 160 μL of acetonitrile were added.
The mass spectrometer was operated in the positive mode.
Quantification was achieved by the external standard method.
Calibration Curve for Plasma Samples
LB100 concentrations of the LB151 plasma samples were also measured and pharmacokinetic parameters were calculated.

in vivo [10] = format: in vivo; conditions: rat, in vivo
Description: 100 was administrated via iv route at 0.5, 1.0 and 1.5 mg/kg into SD rats. The blood, liver and brain tissue samples were collected at predetermined times from rats.
Twelve (12) female SD rats per group were dosed by iv with 100. The rats were fasted overnight prior to dosing, with free access to water. Foods were withheld for 2 hours post-dose. Blood, liver and brain tissue samples in two animals each group were collected at each time point, within 10% of the scheduled time for each time point. Two extra animals were used for analytic method development. Blood (>0.3 mL) were collected via aorta abdominalis in anaesthetic animals into tubes containing heparin at 15 min, 1, 2, 6, 10 and 24 hours after iv administration. Liver and brain tissues were collected immediately after animal death. The liver and brain tissues were excised and rinsed with cold saline to avoid blood residual. Upon collection, each sample was placed on ice and the blood samples were subsequently centrifuged (4° C., 11000 rpm, 5 min) to separate plasma. The obtained plasma, liver and brain tissue samples were stored at −70° C. until LC-MS/MS analysis.
AUC0-∞ (AUCINF) is the area under the plasma concentration-time curve with last concentration extrapolated based on the elimination rate constant.

[11] = rat, in vivo; remark: listed apart in the source
[12] = fostriecin iv daily for 5 days, phase I trials; cited from earlier work
[13] = male, SD, Liver-plasma concentration ratio of 100
[14] = male, SD, liver concentration of 100
[15] = male, SD, plasma concentration of 100
[16] = male, Sprague-Dawley, Liver-plasma concentration ratio of 100

CN1CCN(C(=O)C2C3CCC(O3)C2C(=O)O)CC1 (stereo not shown) [Compound 100]
plasma concentration of 100 (in vivo [1]; male, SD, 6 hr): 3.25 ng/mL
Kp at 0.25 hr (in vivo [1]; [13]): 4.1
Kp at 1 hr (in vivo [1]; [13]): 4.98
concentration at 0.25 hr (in vivo [1]; [14]): 2090 ng/g
concentration at 1 hr (in vivo [1]; [14]): 1360 ng/g
concentration at 2 hr (in vivo [1]; [14]): 425 ng/g
concentration at 6 hr (in vivo [1]; [14]): 23.8 ng/g
concentration at 0.25 hr (in vivo [1]; [15]): 510 ng/mL
concentration at 1 hr (in vivo [1]; [15]): 273 ng/mL
concentration at 6 hr (in vivo [1]; [15]): 3.25 ng/mL
AUC(0-t) ratio of liver over plasma (in vivo [1]; male, Sprague-Dawley): 399
Liver-plasma concentration ratio of 100 (in vivo [1]; male, Sprague-Dawley, 6 hr): 7.32
Kp at 2 hr (in vivo [1]; [16]): 4.95
Kp at 6 hr (in vivo [1]; [16]): 7.32
AUC(0-last) in liver (in vivo [1]): 2804 ng·h/g
AUC(0-∞) in liver (in vivo [1]): 2834 ng·h/g
AUClast-liver/AUClast-plasma of 100 (in vivo [1]): 399
recurrence of the remaining 40% of xenografts vs radiation alone (U251 human GBM cells): two months later
xenografts eliminated (U251 human GBM cells; daily for 5 days x 3 courses, 6 months plus follow-up): 60%
inhibition of PP2A in circulating white blood cells ([2]; slow iv 100 at 0.375 mg/kg): 9%
inhibition of PP2A in circulating white blood cells ([2]; slow iv 100 at 0.75 mg/kg): 15%
inhibition of PP2A in circulating white blood cells ([2]; slow iv 100 at 1.5 mg/kg): 25%
Co ([3]; 0.15 mg/kg): 566 ng/mL
Co ([3]; 0.30 mg/kg): 857 ng/mL
Co ([3]; 0.50 mg/kg): 1930 ng/mL
radiation dose enhancement factor [4]: 1.45
passage of blood brain barrier (BBB) [5]: does not readily pass the blood brain barrier (BBB)
% AUC* Extrapolated ([6]; 0.5 mg/kg): 5.6%
Co ([6]; 0.5 mg/kg): 1497 ng/mL
DN AUClast ([6]; 0.5 mg/kg): 904
% AUC* Extrapolated ([6]; 0.75 mg/kg): 27%
Co ([6]; 0.75 mg/kg): 2347 ng/mL
DN AUClast ([6]; 0.75 mg/kg): 921
% AUC* Extrapolated ([6]; 1.25 mg/kg): 17%
Co ([6]; 1.25 mg/kg): 3849 ng/mL
DN AUClast ([6]; 1.25 mg/kg): 1887
IC50 [7]: 1 to 3 µM
stability in presence of microsomes [8]: stable relative to verapamil
Plasma Concentrations of 100 ([9]; Sprague-Dawley (SD)): 5.10 ng/mL
Plasma Concentrations of 100 ([9]; Sprague-Dawley): 10.2 ng/mL
half-life (in vivo [10]; Sprague-Dawley): ≤ 1 h
mean Cmax in plasma (in vivo [10]; female, Sprague-Dawley, iv, 1.5 mg/kg): 1110 to 3664 ng/mL
detectability in liver and brain tissue samples (in vivo [10]; iv): detectable
AUClast in brain (in vivo [10]; iv, 1.5 mg/kg): 10.8 to 125.5 ng·h/g
AUClast in liver (in vivo [10]; iv, 1.5 mg/kg): 758.6 to 9081.0 ng·h/g
oral bioavailability [11]: 1%
plasma level after oral administration [11]: little is present in plasma after oral administration

C[C@@](O)(/C=C/[C@H]1CC=CC(=O)O1)[C@@H](C[C@@H](O)\C=C/C=C\C=C\CO)OP(=O)(O)O [fostriecin]
dose limiting toxicity [12]: Dose limiting toxicity was not achieved
major toxicities [12]: reversible non-cumulative increases in serum creatinine and hepatic enzymes
